In publication PMC12155096 (International Journal of Molecular Sciences, 2025):
Structures can show the parent of a compound that is named as a salt. Where two headings read alike, the source gives them in different places.

Assays:
[1] = molecular target: Photinus pyralis (firefly) luciferase (Photinus pyralis, UniProt P08659); experiment: biochemical; assay type: biochemical
[2] = molecular target: T1, human CYP1A2 (Homo sapiens, UniProt P05177)
T1 sequence (P05177 1-516): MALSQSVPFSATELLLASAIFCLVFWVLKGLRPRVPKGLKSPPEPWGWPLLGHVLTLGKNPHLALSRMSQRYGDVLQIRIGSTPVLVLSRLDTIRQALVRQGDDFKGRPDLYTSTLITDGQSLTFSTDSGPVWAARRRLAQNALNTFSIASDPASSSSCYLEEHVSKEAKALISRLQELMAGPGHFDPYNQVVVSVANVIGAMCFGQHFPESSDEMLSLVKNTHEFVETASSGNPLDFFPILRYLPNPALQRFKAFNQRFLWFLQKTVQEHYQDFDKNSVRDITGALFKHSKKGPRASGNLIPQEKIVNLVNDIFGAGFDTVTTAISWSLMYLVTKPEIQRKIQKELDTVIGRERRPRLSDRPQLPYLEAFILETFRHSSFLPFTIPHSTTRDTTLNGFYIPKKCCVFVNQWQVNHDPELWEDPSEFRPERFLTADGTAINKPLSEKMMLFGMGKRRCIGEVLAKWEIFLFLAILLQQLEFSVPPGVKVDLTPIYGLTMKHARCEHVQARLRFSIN

[3] = molecular target: T2, human CYP2C9 (Homo sapiens, UniProt P11712)
T2 sequence (P11712 whole entry): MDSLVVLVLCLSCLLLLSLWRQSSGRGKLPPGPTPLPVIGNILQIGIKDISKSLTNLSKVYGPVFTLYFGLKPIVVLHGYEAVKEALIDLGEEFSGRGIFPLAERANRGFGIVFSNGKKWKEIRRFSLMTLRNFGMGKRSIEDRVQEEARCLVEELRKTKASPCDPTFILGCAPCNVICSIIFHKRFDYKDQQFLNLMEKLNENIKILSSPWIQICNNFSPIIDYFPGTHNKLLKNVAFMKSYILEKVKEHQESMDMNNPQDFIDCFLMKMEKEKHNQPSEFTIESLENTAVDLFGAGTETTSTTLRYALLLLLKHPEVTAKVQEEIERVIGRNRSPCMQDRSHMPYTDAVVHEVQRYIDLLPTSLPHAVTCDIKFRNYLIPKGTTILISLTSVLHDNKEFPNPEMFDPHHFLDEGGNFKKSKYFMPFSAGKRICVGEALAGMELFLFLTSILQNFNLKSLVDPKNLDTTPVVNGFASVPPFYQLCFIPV

[4] = molecular target: CYP3A4 (Homo sapiens, UniProt P08684)
Chain of CYP3A4 (P08684 whole entry): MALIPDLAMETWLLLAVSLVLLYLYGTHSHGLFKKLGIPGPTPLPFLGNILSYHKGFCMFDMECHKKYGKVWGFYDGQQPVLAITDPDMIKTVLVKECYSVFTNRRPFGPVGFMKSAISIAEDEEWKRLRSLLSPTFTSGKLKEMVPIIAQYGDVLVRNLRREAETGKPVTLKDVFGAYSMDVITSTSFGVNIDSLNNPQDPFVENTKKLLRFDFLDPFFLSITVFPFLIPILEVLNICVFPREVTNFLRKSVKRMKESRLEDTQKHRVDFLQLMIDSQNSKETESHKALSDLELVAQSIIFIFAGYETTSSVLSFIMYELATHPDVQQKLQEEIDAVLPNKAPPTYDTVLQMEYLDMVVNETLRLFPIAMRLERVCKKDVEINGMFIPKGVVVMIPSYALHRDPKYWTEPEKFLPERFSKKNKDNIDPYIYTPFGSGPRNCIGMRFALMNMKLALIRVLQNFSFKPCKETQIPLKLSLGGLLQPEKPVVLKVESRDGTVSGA

[5] = molecular target: T3, human CYP2C19 (Homo sapiens, UniProt P33261); experiment: biochemical
T3 sequence (P33261 whole entry): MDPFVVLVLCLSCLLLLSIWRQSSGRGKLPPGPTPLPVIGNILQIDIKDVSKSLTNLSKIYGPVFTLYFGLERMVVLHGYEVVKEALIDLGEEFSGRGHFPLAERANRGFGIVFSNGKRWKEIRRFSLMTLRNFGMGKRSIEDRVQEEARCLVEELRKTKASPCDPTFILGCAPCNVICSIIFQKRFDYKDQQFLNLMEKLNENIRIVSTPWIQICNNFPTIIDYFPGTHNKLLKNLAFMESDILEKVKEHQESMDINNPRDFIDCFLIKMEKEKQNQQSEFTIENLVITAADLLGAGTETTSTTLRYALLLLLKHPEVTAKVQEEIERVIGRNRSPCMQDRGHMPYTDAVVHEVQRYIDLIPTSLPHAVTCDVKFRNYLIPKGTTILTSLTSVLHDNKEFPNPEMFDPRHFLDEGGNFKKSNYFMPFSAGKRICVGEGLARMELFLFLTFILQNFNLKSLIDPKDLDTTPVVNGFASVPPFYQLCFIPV

[6] = molecular target: T4, human CYP2D6 (Homo sapiens, UniProt P10635); experiment: biochemical
T4 sequence (P10635 whole entry): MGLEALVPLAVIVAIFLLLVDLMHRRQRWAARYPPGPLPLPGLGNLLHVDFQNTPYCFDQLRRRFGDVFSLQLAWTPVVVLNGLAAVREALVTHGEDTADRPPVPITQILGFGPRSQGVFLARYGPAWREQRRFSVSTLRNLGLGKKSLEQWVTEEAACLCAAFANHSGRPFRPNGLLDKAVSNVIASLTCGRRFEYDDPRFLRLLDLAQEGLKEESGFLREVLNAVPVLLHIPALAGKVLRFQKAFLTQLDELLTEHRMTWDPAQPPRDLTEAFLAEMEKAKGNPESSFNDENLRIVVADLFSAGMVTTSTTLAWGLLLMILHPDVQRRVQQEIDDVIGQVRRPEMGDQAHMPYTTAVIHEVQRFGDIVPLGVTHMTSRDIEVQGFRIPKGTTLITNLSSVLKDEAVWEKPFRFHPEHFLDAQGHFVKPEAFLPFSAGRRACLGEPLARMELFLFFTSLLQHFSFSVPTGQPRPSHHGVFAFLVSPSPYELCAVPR

[7] = molecular target: T1, human CYP1A2; experiment: biochemical
[8] = molecular target: T2, human CYP2C9; experiment: biochemical
[9] = molecular target: T3, human CYP2C19; details: for CYP2C19 Efficacy (in parenthesis): human
[10] = molecular target: T4, human CYP2D6; details: human
[11] = CYP1A2 IC50 (half-maximal inhibitory concentration)
[12] = CYP2C9 IC50 (half-maximal inhibitory concentration)
[13] = CYP2C19 IC50 (half-maximal inhibitory concentration)
[14] = CYP2D6 IC50 (half-maximal inhibitory concentration)

Chain of Photinus pyralis (firefly) luciferase (P08659 whole entry): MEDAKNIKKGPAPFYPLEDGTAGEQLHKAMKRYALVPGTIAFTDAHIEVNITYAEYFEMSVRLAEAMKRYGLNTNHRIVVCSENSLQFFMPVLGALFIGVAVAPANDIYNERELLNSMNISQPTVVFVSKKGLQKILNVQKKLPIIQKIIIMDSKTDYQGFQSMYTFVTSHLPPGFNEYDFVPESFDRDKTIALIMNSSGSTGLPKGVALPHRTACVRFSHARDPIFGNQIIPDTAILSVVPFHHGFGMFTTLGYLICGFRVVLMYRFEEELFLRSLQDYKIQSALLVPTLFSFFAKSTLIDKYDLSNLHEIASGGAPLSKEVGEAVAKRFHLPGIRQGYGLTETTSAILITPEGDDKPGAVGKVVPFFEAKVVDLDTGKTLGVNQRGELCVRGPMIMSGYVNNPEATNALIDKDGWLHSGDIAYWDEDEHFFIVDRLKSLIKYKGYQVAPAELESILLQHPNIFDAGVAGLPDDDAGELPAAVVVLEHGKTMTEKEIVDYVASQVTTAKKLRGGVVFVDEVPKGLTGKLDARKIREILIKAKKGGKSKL

CN1CCC(N(Cc2ccccc2)c2ccccc2)CC1 [Bamipine]
Luciferase IC50 [1]: Inactive
CYP1A2 IC50 [2]: Inactive
CYP2C9 IC50 [3]: Inactive
CYP3A4 IC50 [4]: Inactive
IC50 [5]: 36.8 µM
IC50 [6]: 0.38 µM

c1ccc2cc3c(ccc4ccccc43)cc2c1 [Benz(a)anthracene]
IC50 [1]: 6.12 µM
CYP3A4 IC50 [4]: Inactive
IC50 ([7]; CYP1A2 IC50): 0.86 µM
IC50 ([8]; CYP2C9 IC50): 36.4 µM
IC50 ([5]; CYP2C19 IC50): 15.9 µM
IC50 ([6]; CYP2D6 IC50): 50.5 µM

CN(Cc1cc(Br)cc(Br)c1N)C1CCCCC1 [Bromhexine hydrochloride]
Luciferase IC50 [1]: Inactive
CYP3A4 IC50 [4]: Inactive
IC50 [7]: 28.1 ± 9.38 µM
IC50 [8]: 19.5 ± 6.96 µM
IC50 [5]: 4.36 µM
IC50 [6]: 0.01 ± 0.01 µM

CCCCN(CCCC)CCCOC(=O)c1ccc(N)cc1 [Butacaine]
Luciferase IC50 (half-maximal inhibitory concentration) [1]: Inactive
CYP3A4 IC50 (half-maximal inhibitory concentration) [4]: Inactive
IC50 [7, 11]: 22.4 µM
IC50 [8, 12]: 26.4 µM
IC50 [5, 13]: 38.9 µM
IC50 [6, 14]: 0.03 µM

CN(Cc1ccc(C(C)(C)C)cc1)Cc1cccc2ccccc12 [Butenafine]
Luciferase IC50 [1]: Inactive
CYP3A4 IC50 [4]: Inactive
IC50 ([7]; CYP1A2 IC50): 24.6 µM
IC50 ([8]; CYP2C9 IC50): 16.3 µM
IC50 ([5]; CYP2C19 IC50): 9.91 µM
IC50 ([6]; CYP2D6 IC50): 0.39 µM

CN(C)CCCSc1ccccc1NC(=O)/C=C/c1ccccc1 [Cinanserin]
Luciferase IC50 (half-maximal inhibitory concentration) [1]: Inactive
CYP1A2 IC50 (half-maximal inhibitory concentration) [2]: Inactive
CYP2C9 IC50 (half-maximal inhibitory concentration) [3]: Inactive
CYP2C19 Efficacy (in parenthesis) [9]: 29.59 ± 16.13 (-78 ± 38) %
CYP2D6 Efficacy (in parenthesis) [10]: 0.52 ± 0.22 (-96 ± 14) %
CYP3A4 IC50 (half-maximal inhibitory concentration) [4]: Inactive
IC50 [5, 13]: 29.6 µM
IC50 [6, 14]: 0.52 µM

CC(C(O)c1ccccc1)N(C)C/C=C/c1ccccc1 (stereo not shown) [Cinnamedrine]
Luciferase IC50 (half-maximal inhibitory concentration) [1]: Inactive
CYP3A4 IC50 (half-maximal inhibitory concentration) [4]: Inactive
IC50 [7]: 16.4 µM
IC50 [8]: 16.1 µM
IC50 [5]: 1.46 µM
IC50 [6]: 0.11 µM

Clc1ccccc1C(c1ccccc1)(c1ccccc1)n1ccnc1 [Clotrimazole]
Luciferase IC50 (half-maximal inhibitory concentration) [1]: Inactive
CYP1A2 Efficacy (in parenthesis) ([2]; human): 9.92 ± 2.76 (-108 ± 12) %
CYP2C9 Efficacy (in parenthesis) ([3]; human): 1.14 ± 0.44 (-107 ± 6) %
CYP2C19 Efficacy (in parenthesis) [9]: 3.88 ± 0.66 (-140 ± 14) %
CYP2D6 Efficacy (in parenthesis) [10]: 46.25 ± 14.89 (-110 ± 18) %
CYP3A4 Efficacy (in parenthesis) [4]: 0.02 ± 0.01 (-96 ± 6) %
IC50 [8, 12]: 1.14 µM
IC50 [5, 13]: 3.88 µM
IC50 [6, 14]: 46.2 µM

NC(=O)C(c1ccccc1)(c1ccccc1)[C@@H]1CCN(CCc2ccc3c(c2)CCO3)C1 [Darifenacin hydrobromide]
Luciferase IC50 (half-maximal inhibitory concentration) [1]: Inactive
CYP1A2 IC50 (half-maximal inhibitory concentration) [2]: Inactive
CYP2C9 IC50 (half-maximal inhibitory concentration) [3]: Inactive
CYP2C19 IC50 (half-maximal inhibitory concentration) [9]: Inactive
CYP2D6 Efficacy (in parenthesis) [10]: 0.41 ± 0.07 (-99 ± 4) %
CYP3A4 IC50 (half-maximal inhibitory concentration) [4]: Inactive
IC50 [6, 14]: 0.41 µM

CCN(CC)c1c([N+](=O)[O-])cc(C(F)(F)F)c(N)c1[N+](=O)[O-] [Dinitramine]
Luciferase IC50 (half-maximal inhibitory concentration) [1]: Inactive
CYP3A4 IC50 (half-maximal inhibitory concentration) [4]: Inactive
IC50 [7, 11]: 0.3 µM
IC50 [8, 12]: 74.5 µM
IC50 [5, 13]: 19.3 µM
IC50 [6, 14]: 55.8 µM

OC(CCCN1CCCCC1)(c1ccccc1)c1ccccc1 [Diphenidol]
Luciferase IC50 (half-maximal inhibitory concentration) [1]: Inactive
CYP1A2 IC50 (half-maximal inhibitory concentration) [2]: Inactive
CYP2C9 IC50 (half-maximal inhibitory concentration) [3]: Inactive
CYP3A4 IC50 (half-maximal inhibitory concentration) [4]: Inactive
IC50 [5, 13]: 32.7 µM
IC50 [6, 14]: 0.09 µM

c1ccc2c(c1)-c1cccc3cccc-2c13 [Fluoranthene]
IC50 [1]: 62.1 µM
CYP3A4 IC50 [4]: Inactive
IC50 ([7]; CYP1A2 IC50): 0.73 µM
IC50 [8]: 67.8 µM
IC50 ([5]; CYP2C19 IC50): 50.2 µM
IC50 ([6]; CYP2D6 IC50): 21.5 µM

COc1ccc(-c2coc3cc(O)ccc3c2=O)cc1 [Formononetin]
IC50 [1]: 3.18 µM
CYP3A4 IC50 (half-maximal inhibitory concentration) [4]: Inactive
IC50 [7, 11]: 14.4 µM
IC50 [8, 12]: 0.29 µM
IC50 [5, 13]: 62.3 µM
IC50 [6, 14]: 51.6 µM

CC(Cc1ccccc1)N(C)Cc1ccco1 (stereo not shown) [Furfenorex]
Luciferase IC50 [1]: Inactive
CYP1A2 IC50 [2]: Inactive
CYP2C9 IC50 [3]: Inactive
CYP3A4 IC50 [4]: Inactive
IC50 ([5]; CYP2C19 IC50): 6.65 µM
IC50 ([6]; CYP2D6 IC50): 0.85 µM

CN1CCCC(CC2c3ccccc3Sc3ccccc32)C1 (stereo not shown) [Metixene hydrochloride]
Luciferase IC50 (half-maximal inhibitory concentration) [1]: Inactive
CYP1A2 IC50 (half-maximal inhibitory concentration) [2]: Inactive
CYP2C9 IC50 (half-maximal inhibitory concentration) [3]: Inactive
CYP3A4 IC50 (half-maximal inhibitory concentration) [4]: Inactive
IC50 [5, 13]: 7.76 µM
IC50 [6, 14]: 0.44 µM

CC(COc1ccccc1)N(CCCl)Cc1ccccc1 (stereo not shown) [Phenoxybenzamine hydrochloride]
Luciferase IC50 (half-maximal inhibitory concentration) [1]: Inactive
CYP3A4 IC50 (half-maximal inhibitory concentration) [4]: Inactive
IC50 [7, 11]: 65.8 µM
IC50 [8, 12]: 22.8 µM
IC50 [5, 13]: 2.44 µM
IC50 [6, 14]: 0.38 µM

CC(CN1c2ccccc2Sc2ccccc21)N(C)C (stereo not shown) [Promethazine hydrochloride]
Luciferase IC50 (half-maximal inhibitory concentration) [1]: Inactive
CYP3A4 IC50 (half-maximal inhibitory concentration) [4]: Inactive
IC50 [7, 11]: 2.23 µM
IC50 [5, 13]: 14.5 µM
IC50 [6, 14]: 0.89 µM

Cc1nc2n(c(=O)c1CCN1CCC(C(=O)c3ccc(F)cc3)CC1)CCS2 [Setoperone]
Luciferase IC50 [1]: Inactive
CYP2C19 IC50 [9]: Inactive
CYP3A4 IC50 [4]: Inactive
IC50 [7]: 32.3 ± 4.12 µM
IC50 [8]: 27.2 ± 16.6 µM
IC50 [6]: 0.48 ± 0.08 µM

CCCC[N+](CCCC)(CCCC)CCCC [Tetrabutylammonium bromide]
Luciferase IC50 [1]: Inactive
CYP1A2 IC50 [2]: Inactive
CYP2C9 IC50 [3]: Inactive
CYP2C19 IC50 [9]: Inactive
CYP3A4 IC50 [4]: Inactive
IC50 ([6]; CYP2D6 IC50): 0.01 µM

COC1CC(=C(c2cccs2)c2cccs2)C[N+](C)(C)C1 (stereo not shown) [Timepidium bromide]
Luciferase IC50 [1]: Inactive
CYP1A2 IC50 [2]: Inactive
CYP2C9 IC50 [3]: Inactive
CYP2C19 IC50 [9]: Inactive
CYP3A4 IC50 [4]: Inactive
IC50 ([6]; CYP2D6 IC50): 0.29 µM

Oc1cc(Cl)ccc1Oc1ccc(Cl)cc1Cl [Triclosan]
Luciferase IC50 [1]: Inactive
CYP3A4 IC50 [4]: Inactive
IC50 ([7]; CYP1A2 IC50): 20.8 µM
IC50 ([5]; CYP2C19 IC50): 0.71 µM
IC50 ([6]; CYP2D6 IC50): 32.8 µM

CS(=O)(=O)c1ccc(-c2cn3ccccc3n2)cc1 [Zolimidine]
IC50 [1]: 6.95 µM
CYP3A4 IC50 [4]: Inactive
IC50 ([7]; CYP1A2 IC50): 0.7 µM
IC50 ([8]; CYP2C9 IC50): 24.1 µM
IC50 ([5]; CYP2C19 IC50): 25.7 µM
IC50 ([6]; CYP2D6 IC50): 24.2 µM
